From patent publication US5955440A, “Macrolide LHRH antagonists” (Abbott Laboratories, priority 1998, dated 1999)
Counter-ions that a name gives are not always drawn.

Biological target: T1, LHRH rat pituitary receptor (Rattus norvegicus, UniProt P30969)
T1 construct: from tissue; host or cells: rat pituitary
T1 sequence (P30969 1-327): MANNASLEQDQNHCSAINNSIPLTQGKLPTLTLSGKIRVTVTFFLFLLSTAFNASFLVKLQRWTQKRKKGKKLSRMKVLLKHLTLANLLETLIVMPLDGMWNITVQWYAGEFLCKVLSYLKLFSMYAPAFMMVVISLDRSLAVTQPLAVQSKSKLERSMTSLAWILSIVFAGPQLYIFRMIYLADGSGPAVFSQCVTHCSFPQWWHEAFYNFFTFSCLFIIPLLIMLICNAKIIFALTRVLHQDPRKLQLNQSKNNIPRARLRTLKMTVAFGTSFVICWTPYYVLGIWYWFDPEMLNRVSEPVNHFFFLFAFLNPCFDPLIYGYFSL
Assay: LHRH rat pituitary receptor binding (pKI)
Conditions: negative logarithm of the equilibrium dissociation constants; for receptor binding affinity (pKI): Table 1; for Ki: Table 1, read-out: receptor binding affinity (pKI) (converted)
Protocol: Representative compounds of the present invention were evaluated in in vitro tests for LHRH rat pituitary receptor binding (pKI) and for LH inhibition from rat pituitary cells for antagonist potency (pA2). The tests employed the methods detailed in F. Haviv, et al. J. Med. Chem., 32: 2340-2344 (1989). The receptor binding affinity (pKI) is the negative logarithm of the equilibrium dissociation constants.

## 3'-N-Desmethyl-3'-N-[3-(3-pyridyl)propyl]-11-deoxy-11-[carboxy-(3,4-dichlorophenethylamino)]-6-O-methyl-erythromycin A 11,12-(cyclic carbamate) [Example 79]
  receptor binding affinity (pKI): 8.11

## CC[C@H]1OC(=O)[C@H](C)[C@@H](O[C@H]2C[C@@](C)(OC)[C@@H](O)[C@H](C)O2)[C@H](C)[C@@H](O[C@@H]2O[C@H](C)C[C@H](N(C)C3CC3)[C@H]2O)[C@](C)(OC)C[C@@H](C)C(=O)[C@H](C)[C@H]2N(CCc3ccc(Cl)c(Cl)c3)C(=O)O[C@]12C [Example 2, 3'-N-Desmethyl-3'-N-cyclopropyl-11-deoxy-11-[carboxy-(3,4-dichlorophenethylamino)]-6-O-methyl-erythromycin A 11,12-(cyclic carbamate)]
  Ki: 0.575 nM

## CC[C@H]1OC(=O)[C@H](C)[C@@H](O[C@H]2C[C@@](C)(OC)[C@@H](O)[C@H](C)O2)[C@H](C)[C@@H](O[C@@H]2O[C@H](C)C[C@H](N(C)C3CCC3)[C@H]2O)[C@](C)(OC)C[C@@H](C)C(=O)[C@H](C)[C@H]2N(CCc3ccc(Cl)c(Cl)c3)C(=O)O[C@]12C [Example 4, 3'-N-Desmethyl-3'-N-cyclobutyl-11-deoxy-11-[carboxy-(3,4-dichlorophenethylamino)]-6-O-methyl-erythromycin A 11,12-(cyclic carbamate) hydrochloride]
  Ki: 3.24 nM

## CC[C@H]1OC(=O)[C@H](C)[C@@H](O[C@H]2C[C@@](C)(OC)[C@@H](O)[C@H](C)O2)[C@H](C)[C@@H](O[C@@H]2O[C@H](C)C[C@H](N(C)C3CCCCC3)[C@H]2O)[C@](C)(OC)C[C@@H](C)C(=O)[C@H](C)[C@H]2N(CCc3ccc(Cl)c(Cl)c3)C(=O)O[C@]12C [Example 5, 3'-N-Desmethyl-3'-N-cyclohexyl-11-deoxy-11-[carboxy-(3,4-dichlorophenethylamino)]-6-O-methyl-erythromycin A 11,12-(cyclic carbamate)]
  Ki: 3.63 nM

## CC[C@H]1OC(=O)[C@H](C)[C@@H](O[C@H]2C[C@@](C)(OC)[C@@H](O)[C@H](C)O2)[C@H](C)[C@@H](O[C@@H]2O[C@H](C)C[C@H](N(C)CCC(C)C)[C@H]2O)[C@](C)(OC)C[C@@H](C)C(=O)[C@H](C)[C@H]2N(CCc3ccc(Cl)c(Cl)c3)C(=O)O[C@]12C [Example 6]
  Ki: 8.13 nM

## CC[C@H]1OC(=O)[C@H](C)[C@@H](O[C@H]2C[C@@](C)(OC)[C@@H](O)[C@H](C)O2)[C@H](C)[C@@H](O[C@@H]2O[C@H](C)C[C@H](N(C)CCCSC)[C@H]2O)[C@](C)(OC)C[C@@H](C)C(=O)[C@H](C)[C@H]2N(CCc3ccc(Cl)c(Cl)c3)C(=O)O[C@]12C [Example 7, 3'-N-Desmethyl-3'-N-(3-methylthiopropyl)-11-deoxy-11-[carboxy-(3,4-dichlorophenethylamino)]-6-O-methyl-erythromycin A 11,12-(cyclic carbamate)]
  Ki: 4.68 nM

## CC[C@H]1OC(=O)[C@H](C)[C@@H](O[C@H]2C[C@@](C)(OC)[C@@H](O)[C@H](C)O2)[C@H](C)[C@@H](O[C@@H]2O[C@H](C)C[C@H](N(C)C3CCSC3)[C@H]2O)[C@](C)(OC)C[C@@H](C)C(=O)[C@H](C)[C@H]2N(CCc3ccc(Cl)c(Cl)c3)C(=O)O[C@]12C (some centres unmarked) [Example 8, 3'-N-Desmethyl-3'-N-(3-tetrahydrothienyl)-11-deoxy-11-[carboxy-(3,4-dichlorophenethylamino)]-6-O-methyl-erythromycin A 11,12-(cyclic carbamate)]
  Ki: 7.41 nM

## CC[C@H]1OC(=O)[C@H](C)[C@@H](O[C@H]2C[C@@](C)(OC)[C@@H](O)[C@H](C)O2)[C@H](C)[C@@H](O[C@@H]2O[C@H](C)C[C@H](N(C)C3CC(C)C(C)C3)[C@H]2O)[C@](C)(OC)C[C@@H](C)C(=O)[C@H](C)[C@H]2N(CCc3ccc(Cl)c(Cl)c3)C(=O)O[C@]12C (some centres unmarked) [Example 9, 3'-N-Desmethyl-3'-N-(3,4-dimethylcyclopentyl)-11-deoxy-11-[carboxy-(3,4-dichlorophenethylamino)]-6-O-methyl-erythromycin A 11,12-(cyclic carbamate)]
  receptor binding affinity (pKI): 8.36

## CC[C@H]1OC(=O)[C@H](C)[C@@H](O[C@H]2C[C@@](C)(OC)[C@@H](O)[C@H](C)O2)[C@H](C)[C@@H](O[C@@H]2O[C@H](C)C[C@H](N(C)C(C)C)[C@H]2O)[C@](C)(OC)C[C@@H](C)C(=O)[C@H](C)[C@H]2N(CC3(c4ccc(Cl)c(Cl)c4)CC3)C(=O)O[C@]12C [Example 10, 3'-N-Desmethyl-3'-N-isopropyl-11-deoxy-11-[carboxy-(α,α-cyclopropyl-3,4-dichlorophenethylamino)]-6-O-methyl-erythromycin A 11,12-(cyclic carbamate)]
  Ki: 1.74 nM

## CC[C@H]1OC(=O)[C@H](C)[C@@H](O[C@H]2C[C@@](C)(OC)[C@@H](O)[C@H](C)O2)[C@H](C)[C@@H](O[C@@H]2O[C@H](C)C[C@H](N(C)C3CCC3)[C@H]2O)[C@](C)(OC)C[C@@H](C)C(=O)[C@H](C)[C@H]2N(CC3(c4ccc(Cl)c(Cl)c4)CC3)C(=O)O[C@]12C [Example 11, 3'-N-Desmethyl-3'-N-cyclobutyl-11-deoxy-11-[carboxy-(α,α-cyclopropyl-3,4-dichlorophenethylamino)]-6-O-methyl-erythromycin A 11,12-(cyclic carbamate)]
  Ki: 3.09 nM

## CC[C@H]1OC(=O)[C@H](C)[C@@H](O[C@H]2C[C@@](C)(OC)[C@@H](O)[C@H](C)O2)[C@H](C)[C@@H](O[C@@H]2O[C@H](C)C[C@H](N(C)C3CCCC3)[C@H]2O)[C@](C)(OC)C[C@@H](C)C(=O)[C@H](C)[C@H]2N(CC3(c4ccc(Cl)c(Cl)c4)CC3)C(=O)O[C@]12C [Example 12, 3'-N-Desmethyl-3'-N-cyclopentyl-11-deoxy-11-[carboxy-(α,α-cyclopropyl-3,4-dichlorophenethylamino)]-6-O-methyl-erythromycin A 11,12-(cycliccarbamate)]
  Ki: 2.09 nM

## CC[C@H]1OC(=O)[C@H](C)[C@@H](O[C@H]2C[C@@](C)(OC)[C@@H](O)[C@H](C)O2)[C@H](C)[C@@H](O[C@@H]2O[C@H](C)C[C@H](N(C)C3CCCCC3)[C@H]2O)[C@](C)(OC)C[C@@H](C)C(=O)[C@H](C)[C@H]2N(CC3(c4ccc(Cl)c(Cl)c4)CC3)C(=O)O[C@]12C [Example 13, 3'-N-Desmethyl-3'-N-cyclohexyl-11-deoxy-11-[carboxy-(α,α-cyclopropyl-3,4-dichlorophenethylamino)]-6-O-methyl-erythromycin A 11,12-(cyclic carbamate)]
  Ki: 7.94 nM

## CCCN(C)[C@H]1C[C@@H](C)O[C@@H](O[C@@H]2[C@@H](C)[C@H](O[C@H]3C[C@@](C)(OC)[C@@H](O)[C@H](C)O3)[C@@H](C)C(=O)O[C@H](CC)[C@@]3(C)OC(=O)N(CCc4ccc5c(c4)OCO5)[C@@H]3[C@@H](C)C(=O)[C@H](C)C[C@@]2(C)OC)[C@@H]1O [Example 14, 3'-N-Desmethyl-3'-N-n-propyl-11-deoxy-11-[carboxy-(3,4-dioxolanophenethylamino)]-6-O-methyl-erythromycin A 11,12-(cyclic carbamate)]
  Ki: 1.78 nM

## CC[C@H]1OC(=O)[C@H](C)[C@@H](O[C@H]2C[C@@](C)(OC)[C@@H](O)[C@H](C)O2)[C@H](C)[C@@H](O[C@@H]2O[C@H](C)C[C@H](N(C)C3CCCC3)[C@H]2O)[C@](C)(OC)C[C@@H](C)C(=O)[C@H](C)[C@H]2N(CCc3ccc4c(c3)OCO4)C(=O)O[C@]12C [Example 15, 3'-N-Desmethyl-3'-N-cyclopentyl-11-deoxy-11[carboxy-(3,4-dioxolanophenethylamino)]-6-O-methyl-erythromycin A 11,12-(cyclic carbamate)]
  Ki: 6.31 nM

## CC[C@H]1OC(=O)[C@H](C)[C@@H](O[C@H]2C[C@@](C)(OC)[C@@H](O)[C@H](C)O2)[C@H](C)[C@@H](O[C@@H]2O[C@H](C)C[C@H](N(C)C(C)C)[C@H]2O)[C@](C)(OC)C[C@@H](C)C(=O)[C@H](C)[C@H]2N(CCc3ccc(Cl)c(F)c3)C(=O)O[C@]12C [Example 17, 3'-N-Desmethyl-3'-N-isopropyl-11-deoxy-11-[carboxy-(4-chloro-3-fluorophenethylamino)]-6-O-methyl-erythromycin A 11,12-(cyclic carbamate)]
  Ki: 4.27 nM

## CC[C@H]1OC(=O)[C@H](C)[C@@H](O[C@H]2C[C@@](C)(OC)[C@@H](O)[C@H](C)O2)[C@H](C)[C@@H](O[C@@H]2O[C@H](C)C[C@H](N(C)C3CCCC3)[C@H]2O)[C@](C)(OC)C[C@@H](C)C(=O)[C@H](C)[C@H]2N(CCc3ccc(Cl)c(F)c3)C(=O)O[C@]12C [Example 18, 3'-N-Desmethyl-3'-N-cyclopentyl-11-deoxy-11-[carboxy-(4-chloro-3-fluorophenethylamino)]-6-O-methyl-erythromycin A 11,12-(cyclic carbamate)]
  Ki: 5.89 nM

## CC[C@H]1OC(=O)[C@H](C)[C@@H](O[C@H]2C[C@@](C)(OC)[C@@H](O)[C@H](C)O2)[C@H](C)[C@@H](O[C@@H]2O[C@H](C)C[C@H](N(C)CC3CCC3)[C@H]2O)[C@](C)(OC)C[C@@H](C)C(=O)[C@H](C)[C@H]2N(CCc3ccc(Cl)cc3)C(=O)O[C@]12C [Example 19, 3'-N-Desmethyl-3'-N-cyclobutylmethyl-11-deoxy-11-[carboxy-(4-chlorophenethylamino)]-6-O-methyl-erythromycin A 11,12-(cyclic carbamate)]
  Ki: 1.58 nM
